Patent US5624894A, “Brain-enhanced delivery of neuroactive peptides by sequential metabolism” (University of Florida, priority 1995, dated 1997)
Values joined by “and” are separate entries in the source; they are usually repeats but may differ in a detail not shown here. Equal entries are not always repeated. Square brackets hold non-standard residues; d marks the D form. Ends that are not written are not given here. Peptide text beside a SMILES is read from it. * marks the point of attachment. pGlu = O=C1CC[C@@H](C(=O)O)N1; X1 = C[n+]1cccc(C(=O)*)c1

Legend:
[1] = ACTH4-9 analog, behavioral effects; cited from earlier work
[2] = test system: opioid ([^3 H]diprenorphine-based competitive assay); assay: [3H]diprenorphine-based competitive assay; assay type: binding; settings: read-out: 50 percent inhibitory concentration (IC50)
Text: The test procedure is described hereinbelow following the EXAMPLES, and the results are shown in Tables 5-8 and FIGS. 3-5 for (A) where [SEQ. ID NO. 27] YAGFL is [D-Ala^2 ]-[D-Leu]-enkephalin; i.e., Compound (64) in the EXAMPLES. The targetor-peptide conjugates (C), such as compound (70), are weak opioids. The 50 percent inhibitory concentration (IC50) measured with [^3 H]diprenorphine-based competitive assay is about 10^-7 M, an order of magnitude less than the IC50 of about 10^-8 M for the enkephalin analogs. At the measured 500 to 700 pmol/g tissue concentration, even these weak opioids exert significant analgesic activity. The enkephalin analog may also be released slowly from the targetor-peptide conjugate in vivo, and contribute to the CNS activity. No analgesia was observed after the intravenous administration of the unmanipulated enkephalins, which are membrane-impermeable and unprotected toward various peptide-degrading enzymes, nor after the injection of the partially conjugated (either with the targetor or with cholesteryl) peptides. Modification of the spacer (S) function may allow for the peptidolytic release of the parent peptide from the conjugate at a desired rate, depending on the therapeutic objective.

Swiss Webster mice = assay: Methohexital (barbiturate)-induced sleeping time in mice after i.v. injection; assay type: in vivo; settings: for methohexital induced sleeping time, individual animals / methohexital induced sleeping time, mean: methohexital 90 mg/kg i.p. 10 min later
Text: Two representative chemical delivery systems (CDS's) of the invention for the TRH analog [Leu^2 ]-TRH, i.e., compound (8) of Scheme I/EXAMPLE 8, which has an alanine spacer, and compound (12) of Scheme II/Example 12, which has an alanine-alanine spacer, were studied for their effects on the barbiturate-induced sleeping time in mice. TRH is known to antagonize the reduction in cholinergic activity induced by barbiturates. Thus, the activational effects of the CDS's for TRH analogs on cholinergic neurons can be measured by quantitating the antagonism of pentobarbital-induced sleeping and barbiturate-induced reduction in cholinergic neuronal activity.
Swiss Webster mice weighing 30±2 g were used. The compounds were dissolved in a vehicle consisting of DMSO, ethanol and 50% (w/w) 2-hydroxypropyl-β-cyclodextrin at a ratio of 1:2:1 (15 mg/ml). CDS's at a dose of 30 mg/kg were injected in the animals through the tail vein. Vehicle only and an equimolar dose of TRH and [Leu^2 ]-TRH, 10 mg/kg, were also administered to compare CNS activities. Ten minutes after i.v. injection of the compound, each animal received an intraperitoneal injection of sodium methohexital solution (45 mg/ml) at a dose of 90 mg/kg. The sleeping time was recorded as the time elapsed from the onset of loss of the […] until the reflex was regained. Each compound and the vehicle control were tested on 5-11 animals. The statistical analysis was performed using the Student's t test.

[3] = Stability and water solubility observed during synthesis; assay type: physicochemical; settings: reaction work-up
Method: In all cases before the N-alkylation step, the intermediates were purified by chromatography. In order to avoid side reactions, the N-methylations were performed at room temperature (20°-25° C.) with a slight excess of alkylating agent. The reductions with sodium dithionite were accomplished by cooling at 0°-5° C. in oxygen-free conditions at a pH of approximately 7. The quaternary salts are fairly stable when isolated, but the dihydropyridine derivatives are easily oxidized or hydroxylated and in acid conditions react readily with water.
Trigonellyl-Ala-Tyr-Arg-cholesteryl ester methylsulfate (0.09 g, […]) (30) was dissolved in 20 ml of H2 O, then NaHCO3 (0.05 g, […]) and Na2 S2 O4 (0.07 g, 0.04 mmol) were added in small portions while stirring at 0° C. The reaction vessel was stoppered under nitrogen and allowed to stir for 1.5 hours at 0° C. […] The extraction was repeated 3 times, the organic layers were combined and the solvent was removed in vacuo, to afford 0.056 g of compound (31), yield 62.2%.

[4] = Detection of peptide conjugates in rat brain tissue and blood by electrospray ionization MS after i.v. compound (A); assay type: in vivo; settings: 15 minutes after i.v. compound (A) for [D-Ala2]-Leu-enkephalin, 20 mg/kg, rats; estimated
Text: This approach has been evaluated by using electrospray ionization mass spectrometry, which provides the specificity necessary to monitor the biotransformation processes that occur after delivery. In vivo distribution studies with rats as experimental models (described in detail below) have shown that, upon systemic administration, the modified peptide can partition by passive, nonsaturable transport into the brain which is inaccessible to the unmanipulated compound. At this first step, the modified peptide simply enters the brain because of its lipoidal nature. The targetor moiety, however, undergoes an enzyme-mediated oxidation analogous to the endogenous NAD(P)H.revreaction.NAD(P)^+ coenzyme associated with numerous oxidoreductases and cellular respiration. […]
Detection of the peptide conjugates in the brain tissue by electrospray ionization mass spectrometry was carried out after systemic administration of compound (A). […] The solvent was removed under a dry nitrogen stream, and the reconstituted (in 50% methanol plus 50% water containing 3% acetic acid) sample was analyzed by electrospray ionization mass spectrometry at 5 μl/minute flow rate. […] Quantification was based on comparing the peak intensity to that obtained from the brain sample of an untreated animal spiked with a known amount of compound (C).

[5] = test system: brain peptidases (rat brain homogenate); assay: Incubation of targetor-peptide conjugate in rat brain homogenate; assay type: in vitro ADME; settings: 30 nmol in 1 ml 20% rat brain homogenate, pH 7.4 Tris, 37° C., 0.5 and 2 hours
Method: Compound (C) (30 nmol) was added to one ml rat brain homogenate (20%, w/w, in pH 7.4 Tris buffer), and the mixture was incubated at 37° C. Aliquots (250 t l) were removed 0.5 and 2 hours after incubation, and electrospray ionization mass spectra were obtained after sample preparation identical to that described above. Proteolytic cleavages are identified by the m/z of the products, and the corresponding structures are shown in the Scheme.

[6] = Table 1 experiment, 10 mg/kg i.v. (equimolar), mice
[7] = Table 2 experiment, 10 mg/kg i.v., mice

Org 2766: very active ACTH4-9 analog with oxidized methionine at 4, D-lysine at 8, phenylalanine at 9 (MEHF[dK]F; not fully specified (residue 1); printed as Met Glu His Phe Lys Phe)
potentiation [1]: 1000 fold

CC(C)C[C@@H](NC(=O)[C@H](Cc1ccccc1)NC(=O)CNC(=O)[C@@H](C)NC(=O)[C@H](Cc1ccc(O)cc1)NC(=O)[C@H](C)NC(=O)c1ccc[n+](C)c1)C(=O)O [(70), Trigonellyl-Ala-Tyr-D-Ala-Gly-Phe-D-Leu-OH Methylsulfate] (X1-AY[dA]GF[dL]-OH)
IC50 [2]: ~100 nM

CC(C)C[C@H](NC(=O)[C@@H]1CCC(=O)N1)C(=O)N1CCC[C@H]1C(N)=O [[Leu^2]-TRH, PyroGlu-Leu-Pro-NH2] ([pGlu]-Leu-Pro-NH2)
methohexital induced sleeping time, individual animals (Swiss Webster mice; [6]): 33.95 min and 37.37 min and 28.22 min and 15.03 min and 33.63 min and 20.90 min and 27.97 min and 36.80 min
methohexital induced sleeping time, mean (Swiss Webster mice; [6]): 29.23 min
methohexital induced sleeping time, individual animals (Swiss Webster mice; [7]): 15.18 min and 11.95 min and 12.47 min and 11.17 min and 8.53 min and 8.02 min
methohexital induced sleeping time, mean (Swiss Webster mice; [7]): 11.22 min
effect on barbiturate-induced sleeping time (in words) (Swiss Webster mice; first experiment (Table 1), compared to control or [Leu2]-TRH): no significant difference between the control and [Leu^2 ]-TRH
behavior / symptoms of animals after i.v. administration (Swiss Webster mice; mice): a few animals (1-2) showed the same symptoms as in the case of TRH
effect on sleeping time (in words) (Swiss Webster mice; second experiment (Table 2), compared to TRH or vehicle control): significantly reduced

CC(C)CCC[C@@H](C)[C@H]1CC[C@H]2[C@@H]3CC=C4C[C@@H](OC(=O)[C@H](CCCNC(=N)N)NC(=O)[C@H](Cc5ccc(O)cc5)NC(=O)[C@H](C)NC(=O)C5=CN(C)C=CC5)CC[C@]4(C)[C@H]3CC[C@]12C [(31), 1,4-Dihydrotrigonellyl-Ala-Tyr-Arg-Cholesteryl Ester]
solubility in water (in words) [3]: not soluble in water

NC(=O)[C@@H]1CCCN1C(=O)[C@H](Cc1cnc[nH]1)NC(=O)[C@@H]1CCC(=O)N1 [TRH, PyroGlu-His-Pro-NH2]
methohexital induced sleeping time, individual animals (Swiss Webster mice; [7]): 20.47 min and 23.90 min and 15.00 min and 12.90 min and 11.17 min and 11.77 min and 40.82 min
methohexital induced sleeping time, mean (Swiss Webster mice; [7]): 19.43 min
No. of Death (Swiss Webster mice; [7]): 2
behavior / symptoms of animals after i.v. administration (Swiss Webster mice; mice): tremor, tail-elevation and piloerection

Compound (C): locked-in targetor-peptide conjugate (m/z 760) of [D-Ala2]-Leu-enkephalin, formed from compound (B) by cleavage of the cholesteryl ester ({N‑methylnicotinoyl}-AY[dA]GFL; not fully specified)
level in brain tissue [4]: 500-700 picomole/g tissue
processing in rat brain homogenate (in words) [5]: processed by the brain peptidases similarly to the unmanipulated compound
